Measurements from patent US6602825B1, “1-Aryl-1,3,5-triazine-4-thione-2,6-diones, production thereof and use thereof as herbicides” (BASF Aktiengesellschaft, priority 2001, dated 2003).

melting point [°C] | Compound
225 to 229 | Cn1c(=S)n(C)c(=O)n(-c2cc(C(=O)O)c(Cl)cc2F)c1=O [Compound No. 28, 2-Chloro-5-(3,5-dimethyl-2,6-dioxo-4-thioxo-[1,3,5]triazinan-1-yl)-4-fluorobenzoic acid]
209 to 211 | Cn1c(=S)n(C)c(=O)n(-c2c(F)cc(Cl)c3ncoc23)c1=O [Compound No. 65, 3-(4-chloro-6-fluorobenzoxazol-7-yl)-1,5-dimethyl-6-thioxo-[1,3,5]triazinane-2,4-dione]
156 to 159 | CCc1nc2c(Cl)cc(F)c(-n3c(=O)n(C)c(=S)n(C)c3=O)c2o1 [Compound No. 66, 3-(4-chloro-2-ethyl-6-fluorobenzoxazol-7-yl)-1,5-dimethyl-6-thioxo-[1,3,5]triazinane-2,4-dione]
